Among the data in patent publication US8846933B2, “N-link hydroxamic acid derivatives useful as antibacterial agents” (Pfizer Inc., priority 2009, dated 2014) are EC-1 (MIC) and PA-7 (MIC) values, retold here.

Where only a bound is given, the exact number is not on record here.

Assay [1] concerns Escherichia coli EC-1: VOGEL, mouse virulent. As to the kind of experiment: MIC determination (CLSI), strain EC-1. Format: cell-based. To be noted: strain EC-1, unit assumed. The method in brief:
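The mouse-virulent VOGEL isolate of E. coli, EC-1, served as test organism. Minimum inhibitory concentration was measured by CLSI dilution methodology (M7-A7; M100-S18 standards).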

The test system of assay [2] is Pseudomonas aeruginosa UI-18: Wild-type (PA-7). Put plainly: MIC determination (CLSI), strain PA-7. It is filed as cell-based. To be noted: strain PA-7, unit assumed. The procedure, abridged:
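Strain tested was P. aeruginosa UI-18, a wild-type isolate labelled PA-7. Minimum inhibitory concentrations followed CLSI dilution methodology for aerobically growing bacteria (M7-A7, M100-S18).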

The mark [3] stands for this setting: generated in the same manner as in Table 4.

`COc1ccc(-c2ccn(CCC(C)(C(=O)NO)S(C)(=O)=O)c(=O)c2)cc1F` (centres unmarked) [Example 180, 4-[4-(3-fluoro-4-methoxyphenyl)-2-oxopyridin-1(2H)-yl]-N-hydroxy-2-methyl-2-(methylsulfonyl)butanamide] displayed an EC-1 (MIC) in assay [1] (setting [3]) of 2 µg/mL. This compound also registered a PA-7 (MIC) in assay [2] (setting [3]) of 8 µg/mL.
The corresponding values for `CC(CCn1ccc(-c2ccc(OCC3CCCCC3)nc2)cc1=O)(C(=O)NO)S(C)(=O)=O` (centres unmarked) [Example 181, 4-[6-(cyclohexylmethoxy)-2′-oxo-3,4′-bipyridin-1′(2′H)-yl]-N-hydroxy-2-methyl-2-(methylsulfonyl)butanamide] are 0.125 µg/mL and 4 µg/mL.
Taken in the same sequence, the figures for `COc1ncccc1-c1ccn(CCC(C)(C(=O)NO)S(C)(=O)=O)c(=O)c1` (centres unmarked) [Example 182, N-hydroxy-4-(2-methoxy-2′-oxo-3,4′-bipyridin-1′(2′H)-yl)-2-methyl-2-(methylsulfonyl)butanamide] were over 64 µg/mL and 64 µg/mL.
The corresponding values for `CC(CCn1ccc(-c2ccccc2C(F)(F)F)cc1=O)(C(=O)NO)S(C)(=O)=O` (centres unmarked) [Example 183, N-hydroxy-2-methyl-2-(methylsulfonyl)-4-{2-oxo-4-[2-(trifluoromethyl)phenyl]pyridin-1(2H)-yl}butanamide] are 32 µg/mL and 32 µg/mL.
Compound `CCOc1ccc(-c2ccn(CCC(C)(C(=O)NO)S(C)(=O)=O)c(=O)c2)cc1F` (centres unmarked) [Example 184, 4-[4-(4-ethoxy-3-fluorophenyl)-2-oxopyridin-1(2H)-yl]-N-hydroxy-2-methyl-2-(methylsulfonyl)butanamide] came in with an EC-1 (MIC) in assay [1] of 0.5 µg/mL. The compound further displayed a PA-7 (MIC) in assay [2] of 2 µg/mL.
Regarding `CCOc1ccc(-c2ccn(CCC(C)(C(=O)NO)S(C)(=O)=O)c(=O)c2)cn1` (centres unmarked) [Example 185, 4-(6-ethoxy-2′-oxo-3,4′-bipyridin-1′(2′H)-yl)-N-hydroxy-2-methyl-2-(methylsulfonyl)butanamide], the EC-1 (MIC) in assay [1] came to 2 µg/mL. This compound registered a PA-7 (MIC) in assay [2] of 4 µg/mL.
The corresponding values for `CC(CCn1ccc(-c2ccc(F)cc2F)cc1=O)(C(=O)NO)S(C)(=O)=O` (centres unmarked) [Example 186, 4-[4-(2,4-difluorophenyl)-2-oxopyridin-1(2H)-yl]-N-hydroxy-2-methyl-2-(methylsulfonyl)butanamide] are 2 µg/mL and 2 µg/mL.
As to `CC(CCn1ccc(-c2cccc(F)c2)cc1=O)(C(=O)NO)S(C)(=O)=O` (centres unmarked) [Example 187, 4-[4-(3-fluorophenyl)-2-oxopyridin-1(2H)-yl]-N-hydroxy-2-methyl-2-(methylsulfonyl)butanamide], the EC-1 (MIC) in assay [1] turned out to be 8 µg/mL. The PA-7 (MIC) in assay [2] worked out at 2 µg/mL.
Consider `CNC(=O)c1ccc(-c2ccn(CCC(C)(C(=O)NO)S(C)(=O)=O)c(=O)c2)cc1` (centres unmarked) [Example 188, 4-{1-[4-(hydroxyamino)-3-methyl-3-(methylsulfonyl)-4-oxobutyl]-2-oxo-1,2-dihydropyridin-4-yl}-N-methylbenzamide], for which, in assay [1], the EC-1 (MIC) was over 64 µg/mL. Moreover, the PA-7 (MIC) in assay [2] is over 64 µg/mL.
`CC(CCn1ccc(-c2cccc3cccnc23)cc1=O)(C(=O)NO)S(C)(=O)=O` (centres unmarked) [Example 189, N-hydroxy-2-methyl-2-(methylsulfonyl)-4-(2-oxo-4-quinolin-8-ylpyridin-1(2H)-yl)butanamide] registered an EC-1 (MIC) in assay [1] of over 64 µg/mL. The PA-7 (MIC) in assay [2] was 64 µg/mL.
Taken in the same sequence, the figures for `Cc1ccc(-c2ccn(CCC(C)(C(=O)NO)S(C)(=O)=O)c(=O)c2)cc1` (centres unmarked) [Example 190, N-hydroxy-2-methyl-4-[4-(4-methylphenyl)-2-oxopyridin-1(2H)-yl]-2-(methylsulfonyl)butanamide] were 1 µg/mL and 1 µg/mL.
The compound `COCc1ccccc1-c1ccn(CCC(C)(C(=O)NO)S(C)(=O)=O)c(=O)c1` (centres unmarked) [Example 191, N-hydroxy-4-{4-[2-(methoxymethyl)phenyl]-2-oxopyridin-1(2H)-yl}-2-methyl-2-(methylsulfonyl)butanamide] displayed an EC-1 (MIC) in assay [1] of over 64 µg/mL. Further, the PA-7 (MIC) in assay [2] is over 64 µg/mL.
The compound `CC(CCn1ccc(-c2ccc(F)cc2)cc1=O)(C(=O)NO)S(C)(=O)=O` (centres unmarked) [Example 192, 4-[4-(4-fluorophenyl)-2-oxopyridin-1(2H)-yl]-N-hydroxy-2-methyl-2-(methylsulfonyl)butanamide] registered an EC-1 (MIC) in assay [1] of 8 µg/mL. Further, the PA-7 (MIC) in assay [2] was determined as 2 µg/mL.
Consider `Cc1cc(-c2ccn(CCC(C)(C(=O)NO)S(C)(=O)=O)c(=O)c2)ccc1F` (centres unmarked) [Example 193, 4-[4-(4-fluoro-3-methylphenyl)-2-oxopyridin-1(2H)-yl]-N-hydroxy-2-methyl-2-(methylsulfonyl)butanamide], for which the EC-1 (MIC) in assay [1] was determined as 2 µg/mL. The compound also registered a PA-7 (MIC) in assay [2] of 2 µg/mL.
On to `Cn1c(C#N)ccc1-c1ccn(CCC(C)(C(=O)NO)S(C)(=O)=O)c(=O)c1` (centres unmarked) [Example 194, 4-[4-(5-cyano-1-methyl-1H-pyrrol-2-yl)-2-oxopyridin-1(2H)-yl]-N-hydroxy-2-methyl-2-(methylsulfonyl)butanamide], for which the EC-1 (MIC) in assay [1] is over 64 µg/mL. Also, the PA-7 (MIC) in assay [2] was over 64 µg/mL.
For the compound `COc1ccc(OC)c(-c2ccn(CCC(C)(C(=O)NO)S(C)(=O)=O)c(=O)c2)c1` (centres unmarked) [Example 195, 4-[4-(2,5-dimethoxyphenyl)-2-oxopyridin-1(2H)-yl]-N-hydroxy-2-methyl-2-(methylsulfonyl)butanamide], the EC-1 (MIC) in assay [1] is over 64 µg/mL. In addition, in assay [2], the PA-7 (MIC) is over 64 µg/mL.
In assay [1], `CC(CCn1ccc(-c2cc(F)ccc2F)cc1=O)(C(=O)NO)S(C)(=O)=O` (centres unmarked) [Example 196, 4-[4-(2,5-difluorophenyl)-2-oxopyridin-1(2H)-yl]-N-hydroxy-2-methyl-2-(methylsulfonyl)butanamide] showed an EC-1 (MIC) of 8 µg/mL. Moreover, the PA-7 (MIC) in assay [2] worked out at 4 µg/mL.
Taken in the same sequence, the figures for `CC(CCn1ccc(-c2ccc(-c3ccccc3)c(F)c2)cc1=O)(C(=O)NO)S(C)(=O)=O` (centres unmarked) [Example 197, 4-[4-(2-fluorobiphenyl-4-yl)-2-oxopyridin-1(2H)-yl]-N-hydroxy-2-methyl-2-(methylsulfonyl)butanamide] were 0.25 µg/mL and 2 µg/mL.
For the compound `CC(CCn1ccc(-c2ccc(C#N)cc2)cc1=O)(C(=O)NO)S(C)(=O)=O` (centres unmarked) [Example 198, 4-[4-(4-cyanophenyl)-2-oxopyridin-1(2H)-yl]-N-hydroxy-2-methyl-2-(methylsulfonyl)butanamide], the EC-1 (MIC) in assay [1] was found to be 16 µg/mL. The compound further showed a PA-7 (MIC) in assay [2] of 8 µg/mL.
Taken in the same sequence, the figures for `CCCCc1ccc(-c2ccn(CCC(C)(C(=O)NO)S(C)(=O)=O)c(=O)c2)cc1` (centres unmarked) [Example 199, 4-[4-(4-butylphenyl)-2-oxopyridin-1(2H)-yl]-N-hydroxy-2-methyl-2-(methylsulfonyl)butanamide] were 0.125 µg/mL and 2 µg/mL.
Taken in the same sequence, the figures for `COc1ccc(-c2ccn(CCC(C)(C(=O)NO)S(C)(=O)=O)c(=O)c2)c(C)n1` (centres unmarked) [Example 200, N-hydroxy-4-(6-methoxy-2-methyl-2′-oxo-3,4′-bipyridin-1′(2′H)-yl)-2-methyl-2-(methylsulfonyl)butanamide] were 32 µg/mL and 16 µg/mL.
Compound `Cc1c(-c2ccn(CCC(C)(C(=O)NO)S(C)(=O)=O)c(=O)c2)cnn1-c1ccccc1` (centres unmarked) [Example 203, N-hydroxy-2-methyl-4-[4-(5-methyl-1-phenyl-1H-pyrazol-4-yl)-2-oxopyridin-1(2H)-yl]-2-(methylsulfonyl)butanamide] showed an EC-1 (MIC) in assay [1] of 64 µg/mL. Also, the PA-7 (MIC) in assay [2] was over 64 µg/mL.
